Molecular target: T1, CDK2 (Homo sapiens, UniProt P24941)
T1 construct: endogenous in cells; host or cells: OVCAR3 cells
Test: Phospho-RB measurement in OVCAR3 cells (HTRF phospho-RB cellular kit)
Assay type: cell-based
Conditions: inhibition of RB phosphorylation at S807/811 (HTRF, TR-FRET ratio 665/620), 24 h compound treatment, 0.3 to 10,000 nM
Method in brief: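 IC50 came from a four-parameter logistic fit of the DMSO-normalized TR-FRET ratio (665/620 nm). That ratio reflects RB phosphorylation at S807/811, read with an HTRF antibody pair 4 h after adding lysate at room temperature.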

First: CS(=O)(=O)[C@H]1CC[C@H](Nc2nccc(-c3sc(C45CC(C(F)(F)F)(C4)C5)nc3-c3cccc(NS(=O)(=O)N4Cc5ccccc5C4)c3F)n2)CC1 [Example 57, N-(2-fluoro-3-(5-(2-(((1r,4r)-4-(methylsulfonyl)cyclohexyl)amino)-pyrimidin-4-yl)-2-(3-(trifluoromethyl)-bicyclo[1.1.1]-pentan-1-yl)thiazol-4-yl)phenyl) isoindoline-2-sulfonamide]
Second: CS(=O)(=O)C1CCC(Nc2nccc(-c3sc(C45CC(C(F)(F)F)(C4)C5)nc3-c3cccc(NS(=O)(=O)N4Cc5cccc(C(F)F)c5C4)c3F)n2)CC1 (stereo not shown) [Example 58, 4-(difluoromethyl)-N-(2-fluoro-3-(5-(2-(((1r,4r)-4-(methylsulfonyl)cyclohexyl)-amino)pyrimidin-4-yl)-2-(3-(trifluoromethyl)-bicyclo[1.1.1]pentan-1-yl)thiazol-4-yl)phenyl)-isoindoline-2-sulfonamide]
The IC50 of the first is 1.7-fold higher: 494 nM for the first, 285 nM for the second. The second is the more potent here.

Going from `N#Cc1ccc2c(c1)N(S(=O)(=O)Nc1cccc(-c3nc(C45CC(C4)C5)sc3-c3ccnc(N[C@H]4C[C@@H]5CS(=O)(=O)C[C@@H]5C4)n3)c1F)CC2` [Example 59, N-(3-(2-(bicyclo [1.1.1]pentan-1-yl)-5-(2-(((3aR,5s,6aS)-2,2-dioxidohexahydro-1H-cyclopenta[c]thiophen-5-yl)amino)-pyrimidin-4-yl)thiazol-4-yl)-2-fluorophenyl)-6-cyanoindoline-1-sulfonamide] to `CC(C)(C)c1nc(-c2cccc(NS(=O)(=O)N3Cc4ccccc4C3)c2F)c(-c2ccnc(NC3CCN(S(C)(=O)=O)CC3)n2)s1` [Example 69], the IC50 rises from 53.3 nM to 88.9 nM (1.7-fold). The first is the more potent here.

Compared with `CC1CCCN(S(=O)(=O)Nc2cccc(-c3nc(C(C)(C)C)sc3-c3ccnc(NC4CCN(S(C)(=O)=O)CC4)n3)c2F)C1` (stereo not shown) [Example 62, N-(3-(2-(tert-butyl)-5-(2-((1-(methylsulfonyl)-piperidin-4-yl)amino)-pyrimidin-4-yl)thiazol-4-yl)-2-fluoro-phenyl)-3-methylpiperidine-1-sulfonamide], `CC1CCN(S(=O)(=O)Nc2cccc(-c3nc(C(C)(C)C)sc3-c3ccnc(NC4CCN(S(C)(=O)=O)CC4)n3)c2F)CC1` [Example 63, N-(3-(2-(tert-butyl)-5-(2-((1-(methylsulfonyl)-piperidin-4-yl)amino)-pyrimidin-4-yl)thiazol-4-yl)-2-fluoro-phenyl)-4-methylpiperidine-1-sulfonamide] is 4.7-fold lower in IC50: 3170 nM for the first, 679 nM for the second.

`CC(C)(C)c1nc(-c2cccc(NS(=O)(=O)N3CCN(c4ccccc4)CC3)c2F)c(-c2ccnc(NC3CCN(S(C)(=O)=O)CC3)n2)s1` [Example 64, N-(3-(2-(tert-butyl)-5-(2-((1-(methylsulfonyl)-piperidin-4-yl)amino)-pyrimidin-4-yl)thiazol-4-yl)-2-fluoro-phenyl)-4-phenylpiperazine-1-sulfonamide] and `CC(C)(C)c1nc(-c2cccc(NS(=O)(=O)N3CCC(Oc4ccccc4)CC3)c2F)c(-c2ccnc(NC3CCN(S(C)(=O)=O)CC3)n2)s1` [Example 65, N-(3-(2-(tert-butyl)-5-(2-((1-(methylsulfonyl)-piperidin-4-yl)amino)-pyrimidin-4-yl)thiazol-4-yl)-2-fluoro-phenyl)-4-phenoxypiperidine-1-sulfonamide] are within 1.5-fold of each other in IC50: 735 nM for the first, 588 nM for the second.

`CC1CCCCN1S(=O)(=O)Nc1cccc(-c2nc(C(C)(C)C)sc2-c2ccnc(NC3CCN(S(C)(=O)=O)CC3)n2)c1F` (stereo not shown) [Example 66, N-(3-(2-(tert-butyl)-5-(2-((1-(methylsulfonyl)-piperidin-4-yl)amino)-pyrimidin-4-yl)thiazol-4-yl)-2-fluoro-phenyl)-2-methylpiperidine-1-sulfonamide] and `CC(C)(C)c1nc(-c2cccc(NS(=O)(=O)N3CCCCC3c3ccccc3)c2F)c(-c2ccnc(NC3CCN(S(C)(=O)=O)CC3)n2)s1` (stereo not shown) [Example 67, N-(3-(2-(tert-butyl)-5-(2-((1-(methylsulfonyl)-piperidin-4-yl)amino)-pyrimidin-4-yl)thiazol-4-yl)-2-fluoro-phenyl)-2-phenylpiperidine-1-sulfonamide] cannot be ordered by IC50: over 5000 nM for the first, 8260 nM for the second.
